Test results: patent US9011853B2, “B7-H4 fusion proteins and methods of use thereof” (Amplimmune, Inc., priority 2009, dated 2015)

Tested on: serum levels of 58 analytes
Assay: Serum biomarker analysis, quantitative immunoassay multi-analyte profiling (Rules-Based Medicine RodentMAP v2.9), AA#80
Assay type: in vivo, mouse
Method: In AA#80, serum samples were collected on Day 27, Day 34, Day 41 and Day 55 via the submandibular vein. Approximately 200 μL of blood per mouse was collected in Microtainer® serum separator tubes. Serum was removed following centrifugation and stored at <−65° C. until analysis.
Selected serum samples were sent to Rules-Based Medicine (Austin, Tex.) for quantitative immunoassay multi-analyte profiling of serum samples, with the goal of identifying biomarkers that could be used to monitor disease progression and response to B7-H4-Ig treatment. Day 27, Day 34, and Day 41 sera from the three representative mice in the B7-H4-Ig group (tag #3332, 3334, and 3338) and three representative mice in the Synagis® group (tag #3324, 3329, and 3330) were analyzed for levels of 58 analytes using the RodentMAP v2.9 Testing Service.
Data from the Rules-Based Medicine analysis was analyzed using Microsoft Excel and GraphPad Prism software. T-tests were performed to compare the levels of each analyte in the B7-H4-Ig versus Synagis® treated samples. No correction was made for multiple comparisons. Additionally, correlation coefficients were calculated for each analyte versus disease score.

Substance: B7-H4-Ig: B7-H4 extracellular domain fused to Ig Fc; bare label is the human protein in Example 3, murine protein in Examples 1, 2, 5, 7-11
- serum IL-6 levels, difference between Synagis and B7-H4-Ig groups (AA#80 serum (FIG. 11)): did not reach statistical significance
- serum SAP levels (B7-H4-Ig vs Synagis treated groups): not significantly different
- serum MIP-2 levels (Day 41, vs Synagis treated mice (FIG. 15)): significantly lower
- serum ET-1 levels (Day 41 and overall, vs Synagis treated mice (FIG. 10)): significantly lower
- serum MCP-1 levels (Day 41 and overall, vs Synagis treated mice (FIG. 12)): significantly lower
- serum MCP-3 levels (Day 41 and overall, vs Synagis treated mice (FIG. 14)): significantly lower
- serum samples with TNF-α levels above the limit of detection (all samples (Day 27, 34, 41) (FIG. 16)): none
